The supplement of paper PMC10307832

What was measured:
Experiment in all cases: relative viability (nuclei count vs DMSO), 5 days (fraction); higher = more cells survive
NCI-H1437 = system: NCI-H1437
Method in brief: (§1)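 Five library-drug doses in √10 steps were combined with a fixed anchor-drug dose, or a single drug was given alone, by pin tool to lung cancer cell lines in 1536-well plates the day after seeding. Nuclei were stained and counted after 5 days. Relative viability is the nuclei count in treated wells over that in vehicle wells, taken as the median of duplicate plates.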

NCI-H1648 = system: NCI-H1648
Method in brief: as §1

NCI-H1355 = system: NCI-H1355
Method in brief: as §1

NCI-H2342 = system: NCI-H2342
Method in brief: as §1

LCLC-97TM1 = system: LCLC-97TM1
Method in brief: as §1

NCI-H596 = system: NCI-H596
Method in brief: as §1

`CN1CCN(CCOc2cc(OC3CCOCC3)c3c(Nc4c(Cl)ccc5c4OCO5)ncnc3c2)CC1` [Saracatinib] + CC(=O)c1c(C)c2cnc(Nc3ccc(N4CCNCC4)cn3)nc2n(C2CCCC2)c1=O [Palbociclib] (partner 0.5 µM) was tested, and the relative viability (NCI-H1437; first compound 0.02 µM) was 0.355, the relative viability (NCI-H1437; first compound 0.2 µM) was 0.337 and the relative viability (NCI-H1437; first compound 0.6325 µM) was 0.455. It also gave a relative viability (NCI-H1437; first compound 2 µM) of 0.308, a relative viability (NCI-H1648; first compound 0.02 µM) of 0.252 and a relative viability (NCI-H1648; first compound 0.2 µM) of 0.291. It also gave a relative viability (NCI-H1648; first compound 0.6325 µM) of 0.304, a relative viability (NCI-H1648; first compound 2 µM) of 0.307 and a relative viability (NCI-H1355; first compound 0.02 µM) of 0.401. The relative viability (NCI-H1355; first compound 0.2 µM) was 0.432, the relative viability (NCI-H1355; first compound 0.6325 µM) was 0.416 and the relative viability (NCI-H1355; first compound 2 µM) was 0.371. It also gave a relative viability (NCI-H2342; first compound 0.02 µM) of 0.528, a relative viability (NCI-H2342; first compound 0.2 µM) of 0.479 and a relative viability (NCI-H2342; first compound 0.6325 µM) of 0.524. For the same compound, the relative viability (NCI-H2342; first compound 2 µM) was 0.545, the relative viability (LCLC-97TM1; first compound 0.02 µM) was 0.21 and the relative viability (LCLC-97TM1; first compound 0.2 µM) was 0.185. The relative viability (LCLC-97TM1; first compound 0.6325 µM) was 0.281 and the relative viability (LCLC-97TM1; first compound 2 µM) was 0.175.

Compound `Cc1csc(=NC2CCCCC2)n1/N=C/c1ccc(O)c(O)c1O` [MIM1] + Nc1nc2[nH]cc(CCc3ccc(C(=O)N[C@@H](CCC(=O)O)C(=O)O)cc3)c2c(=O)[nH]1 [Pemetrexed] (partner 0.2 µM) has a relative viability (NCI-H1437; first compound 0.2 µM) of 0.29, a relative viability (NCI-H1437; first compound 0.6325 µM) of 0.317 and a relative viability (NCI-H1437; first compound 2 µM) of 0.348. For the same compound, the relative viability (NCI-H1437; first compound 6.325 µM) was 0.235, the relative viability (NCI-H1437; first compound 20 µM) was 0.154 and the relative viability (NCI-H1648; first compound 0.2 µM) was 0.874. The relative viability (NCI-H1648; first compound 0.6325 µM) was 0.688, the relative viability (NCI-H1648; first compound 2 µM) was 0.584 and the relative viability (NCI-H1648; first compound 6.325 µM) was 0.544. It also gave a relative viability (NCI-H1648; first compound 20 µM) of 0.455, a relative viability (NCI-H1355; first compound 0.2 µM) of 1.05 and a relative viability (NCI-H1355; first compound 0.6325 µM) of 0.932. The relative viability (NCI-H1355; first compound 2 µM) was 1.07, the relative viability (NCI-H1355; first compound 6.325 µM) was 0.863 and the relative viability (NCI-H1355; first compound 20 µM) was 0.616. The relative viability (NCI-H596; first compound 0.2 µM) was 0.608, the relative viability (NCI-H596; first compound 0.6325 µM) was 0.537 and the relative viability (NCI-H596; first compound 2 µM) was 0.536. It also gave a relative viability (NCI-H596; first compound 6.325 µM) of 0.512, a relative viability (NCI-H596; first compound 20 µM) of 0.471 and a relative viability (NCI-H2342; first compound 0.2 µM) of 0.719. It also gave a relative viability (NCI-H2342; first compound 0.6325 µM) of 0.768, a relative viability (NCI-H2342; first compound 2 µM) of 0.75 and a relative viability (NCI-H2342; first compound 6.325 µM) of 0.751. It also gave a relative viability (NCI-H2342; first compound 20 µM) of 0.757, a relative viability (LCLC-97TM1; first compound 0.2 µM) of 0.147 and a relative viability (LCLC-97TM1; first compound 0.6325 µM) of 0.142. It also gave a relative viability (LCLC-97TM1; first compound 2 µM) of 0.167, a relative viability (LCLC-97TM1; first compound 6.325 µM) of 0.172 and a relative viability (LCLC-97TM1; first compound 20 µM) of 0.054.

For `CN1CCN(CCOc2cc(OC3CCOCC3)c3c(Nc4c(Cl)ccc5c4OCO5)ncnc3c2)CC1` [Saracatinib] + Nc1nc2[nH]cc(CCc3ccc(C(=O)N[C@@H](CCC(=O)O)C(=O)O)cc3)c2c(=O)[nH]1 [Pemetrexed] (partner 0.2 µM), the relative viability (NCI-H1437; first compound 0.02 µM) was 0.329, the relative viability (NCI-H1437; first compound 0.2 µM) was 0.247 and the relative viability (NCI-H1437; first compound 0.6325 µM) was 0.277. For the same compound, the relative viability (NCI-H1437; first compound 2 µM) was 0.286, the relative viability (NCI-H1648; first compound 0.02 µM) was 0.721 and the relative viability (NCI-H1648; first compound 0.2 µM) was 0.766. For the same compound, the relative viability (NCI-H1648; first compound 0.6325 µM) was 1.08, the relative viability (NCI-H1648; first compound 2 µM) was 0.415 and the relative viability (NCI-H1355; first compound 0.02 µM) was 1. It also gave a relative viability (NCI-H1355; first compound 0.2 µM) of 1.02, a relative viability (NCI-H1355; first compound 0.6325 µM) of 1 and a relative viability (NCI-H1355; first compound 2 µM) of 1.06. For the same compound, the relative viability (NCI-H596; first compound 0.02 µM) was 0.522, the relative viability (NCI-H596; first compound 0.2 µM) was 0.49 and the relative viability (NCI-H596; first compound 0.6325 µM) was 0.471. For the same compound, the relative viability (NCI-H596; first compound 2 µM) was 0.479, the relative viability (NCI-H2342; first compound 0.02 µM) was 0.83 and the relative viability (NCI-H2342; first compound 0.2 µM) was 0.673. The relative viability (NCI-H2342; first compound 0.6325 µM) was 0.789, the relative viability (NCI-H2342; first compound 2 µM) was 0.84 and the relative viability (LCLC-97TM1; first compound 0.02 µM) was 0.18. For the same compound, the relative viability (LCLC-97TM1; first compound 0.2 µM) was 0.134, the relative viability (LCLC-97TM1; first compound 0.6325 µM) was 0.172 and the relative viability (LCLC-97TM1; first compound 2 µM) was 0.136.

In the case of `CN1CCN(CCOc2cc(OC3CCOCC3)c3c(Nc4c(Cl)ccc5c4OCO5)ncnc3c2)CC1` [Saracatinib] + CC(=O)Nc1cccc(-n2c(=O)n(C3CC3)c(=O)c3c(Nc4ccc(I)cc4F)n(C)c(=O)c(C)c32)c1 [Trametinib] (partner 0.02 µM), the relative viability (NCI-H1437; first compound 0.02 µM) is reported as 0.652, the relative viability (NCI-H1437; first compound 0.2 µM) is reported as 0.538 and the relative viability (NCI-H1437; first compound 0.6325 µM) is reported as 0.733. It also gave a relative viability (NCI-H1437; first compound 2 µM) of 0.538, a relative viability (NCI-H1648; first compound 0.02 µM) of 0.436 and a relative viability (NCI-H1648; first compound 0.2 µM) of 0.47. It also gave a relative viability (NCI-H1648; first compound 0.6325 µM) of 0.564, a relative viability (NCI-H1648; first compound 2 µM) of 0.357 and a relative viability (NCI-H1355; first compound 0.02 µM) of 0.437. For the same compound, the relative viability (NCI-H1355; first compound 0.2 µM) was 0.456, the relative viability (NCI-H1355; first compound 0.6325 µM) was 0.439 and the relative viability (NCI-H1355; first compound 2 µM) was 0.441. The relative viability (NCI-H596; first compound 0.02 µM) was 0.636, the relative viability (NCI-H596; first compound 0.2 µM) was 0.722 and the relative viability (NCI-H596; first compound 0.6325 µM) was 0.648. It also gave a relative viability (NCI-H596; first compound 2 µM) of 0.584, a relative viability (NCI-H2342; first compound 0.02 µM) of 0.763 and a relative viability (NCI-H2342; first compound 0.2 µM) of 0.789. For the same compound, the relative viability (NCI-H2342; first compound 0.6325 µM) was 0.944, the relative viability (NCI-H2342; first compound 2 µM) was 0.817 and the relative viability (LCLC-97TM1; first compound 0.02 µM) was 0.222. The relative viability (LCLC-97TM1; first compound 0.2 µM) was 0.21, the relative viability (LCLC-97TM1; first compound 0.6325 µM) was 0.223 and the relative viability (LCLC-97TM1; first compound 2 µM) was 0.275.
